Calls of active or inactive are those of the source. Cut-off read from the data, not from the text of the source, for most assays here: actives have a measured Kd and inactives only a lower limit. Bounds are passed on as bounds.

Assay [1] addresses T1, Cysteine--tRNA ligase, cytoplasmic (Homo sapiens, UniProt P49589).
T1 sequence (P49589 whole entry): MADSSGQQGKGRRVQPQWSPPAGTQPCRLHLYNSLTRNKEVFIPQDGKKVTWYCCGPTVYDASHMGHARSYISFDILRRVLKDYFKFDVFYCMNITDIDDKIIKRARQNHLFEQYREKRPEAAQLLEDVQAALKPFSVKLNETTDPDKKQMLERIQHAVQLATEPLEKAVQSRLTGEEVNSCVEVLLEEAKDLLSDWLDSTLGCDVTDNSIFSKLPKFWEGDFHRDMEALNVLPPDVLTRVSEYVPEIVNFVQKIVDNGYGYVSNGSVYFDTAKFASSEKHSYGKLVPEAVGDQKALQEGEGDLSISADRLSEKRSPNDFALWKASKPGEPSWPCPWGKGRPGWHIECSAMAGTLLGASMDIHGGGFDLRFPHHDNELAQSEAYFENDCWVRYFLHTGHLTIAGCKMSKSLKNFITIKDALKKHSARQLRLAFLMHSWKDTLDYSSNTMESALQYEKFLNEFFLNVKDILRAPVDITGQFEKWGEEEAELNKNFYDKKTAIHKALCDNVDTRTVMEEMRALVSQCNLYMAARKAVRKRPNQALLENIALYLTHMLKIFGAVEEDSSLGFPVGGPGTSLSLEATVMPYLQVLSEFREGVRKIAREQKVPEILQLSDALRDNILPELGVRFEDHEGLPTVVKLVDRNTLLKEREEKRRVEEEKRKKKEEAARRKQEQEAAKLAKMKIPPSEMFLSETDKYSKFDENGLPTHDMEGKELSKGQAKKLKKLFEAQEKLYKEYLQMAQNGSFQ

Assay [2] has as its target Tyrosine-protein kinase Fer (Homo sapiens, UniProt P16591).
For assay [3], the target named is Tyrosine-protein kinase FRK (Homo sapiens, UniProt P42685).
The target in assay [4] is T2, Phosphatidylinositol 5-phosphate 4-kinase type-2 gamma (Homo sapiens, UniProt Q8TBX8).
T2 sequence (Q8TBX8 whole entry): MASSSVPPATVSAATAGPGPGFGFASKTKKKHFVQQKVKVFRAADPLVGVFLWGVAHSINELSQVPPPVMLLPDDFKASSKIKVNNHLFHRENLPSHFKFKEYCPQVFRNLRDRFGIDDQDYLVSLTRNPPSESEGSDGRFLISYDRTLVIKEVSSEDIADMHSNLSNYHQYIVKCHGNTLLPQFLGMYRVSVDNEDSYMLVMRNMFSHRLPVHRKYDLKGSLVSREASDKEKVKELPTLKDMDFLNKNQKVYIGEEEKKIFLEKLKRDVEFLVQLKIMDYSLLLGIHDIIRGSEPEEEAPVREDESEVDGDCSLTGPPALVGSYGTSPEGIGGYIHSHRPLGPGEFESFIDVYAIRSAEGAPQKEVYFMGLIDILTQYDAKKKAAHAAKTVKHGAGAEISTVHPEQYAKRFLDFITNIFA

The target in assay [5] is Maternal embryonic leucine zipper kinase (Homo sapiens, UniProt Q14680).
In assay [6] the target is T3, ATP-dependent 6-phosphofructokinase, platelet type (Homo sapiens, UniProt Q01813).
T3 sequence (Q01813 whole entry): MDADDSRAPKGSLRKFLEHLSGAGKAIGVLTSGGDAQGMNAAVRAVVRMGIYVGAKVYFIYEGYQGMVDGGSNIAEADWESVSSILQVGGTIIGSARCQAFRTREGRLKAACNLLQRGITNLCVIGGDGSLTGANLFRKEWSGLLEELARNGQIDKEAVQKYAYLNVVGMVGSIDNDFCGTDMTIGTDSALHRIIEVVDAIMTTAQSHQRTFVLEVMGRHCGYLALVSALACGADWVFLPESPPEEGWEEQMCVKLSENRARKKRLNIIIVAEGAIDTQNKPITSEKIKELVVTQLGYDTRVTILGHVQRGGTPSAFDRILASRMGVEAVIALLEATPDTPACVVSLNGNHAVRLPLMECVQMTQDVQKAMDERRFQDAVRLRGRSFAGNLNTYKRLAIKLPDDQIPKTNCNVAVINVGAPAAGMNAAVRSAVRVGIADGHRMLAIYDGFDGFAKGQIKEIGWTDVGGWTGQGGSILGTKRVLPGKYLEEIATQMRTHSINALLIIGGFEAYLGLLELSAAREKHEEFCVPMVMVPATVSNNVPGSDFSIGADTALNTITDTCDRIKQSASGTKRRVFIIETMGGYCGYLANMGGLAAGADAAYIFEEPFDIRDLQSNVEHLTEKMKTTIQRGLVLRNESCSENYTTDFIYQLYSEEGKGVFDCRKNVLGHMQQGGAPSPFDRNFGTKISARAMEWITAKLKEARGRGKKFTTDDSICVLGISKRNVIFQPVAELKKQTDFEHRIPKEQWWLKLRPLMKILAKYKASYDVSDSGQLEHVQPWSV

Assay [7] deals with ATP-dependent RNA helicase DDX3X (Homo sapiens, UniProt O00571).
Assay [8] has as its target U5 small nuclear ribonucleoprotein 200 kDa helicase (Homo sapiens, UniProt O75643).
Assay [9] deals with Serine/threonine-protein kinase pim-1 (Homo sapiens, UniProt P11309).
Assay [10] concerns the target Receptor-interacting serine/threonine-protein kinase 3 (Homo sapiens, UniProt Q9Y572).
The target in assay [11] is Tyrosine-protein kinase HCK (Homo sapiens, UniProt P08631).
Note: in the data inactive means no Kd found up to 30 µM.

Tyrosine-protein kinase FRK, sequence (P42685 whole entry): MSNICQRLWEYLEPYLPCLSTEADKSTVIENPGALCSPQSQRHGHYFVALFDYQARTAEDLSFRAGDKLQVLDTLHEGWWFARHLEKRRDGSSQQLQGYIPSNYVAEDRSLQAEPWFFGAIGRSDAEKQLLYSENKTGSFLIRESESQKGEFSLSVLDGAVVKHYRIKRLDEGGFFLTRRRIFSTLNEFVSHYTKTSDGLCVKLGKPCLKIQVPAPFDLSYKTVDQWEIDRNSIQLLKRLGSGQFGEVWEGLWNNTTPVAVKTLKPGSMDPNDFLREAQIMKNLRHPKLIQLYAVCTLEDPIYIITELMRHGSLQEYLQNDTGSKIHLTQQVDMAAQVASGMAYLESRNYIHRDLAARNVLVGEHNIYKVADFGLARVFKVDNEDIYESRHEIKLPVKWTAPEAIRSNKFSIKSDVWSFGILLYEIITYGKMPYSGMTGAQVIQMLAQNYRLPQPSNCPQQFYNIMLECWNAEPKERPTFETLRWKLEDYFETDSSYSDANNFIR
Tyrosine-protein kinase HCK, sequence (P08631 whole entry): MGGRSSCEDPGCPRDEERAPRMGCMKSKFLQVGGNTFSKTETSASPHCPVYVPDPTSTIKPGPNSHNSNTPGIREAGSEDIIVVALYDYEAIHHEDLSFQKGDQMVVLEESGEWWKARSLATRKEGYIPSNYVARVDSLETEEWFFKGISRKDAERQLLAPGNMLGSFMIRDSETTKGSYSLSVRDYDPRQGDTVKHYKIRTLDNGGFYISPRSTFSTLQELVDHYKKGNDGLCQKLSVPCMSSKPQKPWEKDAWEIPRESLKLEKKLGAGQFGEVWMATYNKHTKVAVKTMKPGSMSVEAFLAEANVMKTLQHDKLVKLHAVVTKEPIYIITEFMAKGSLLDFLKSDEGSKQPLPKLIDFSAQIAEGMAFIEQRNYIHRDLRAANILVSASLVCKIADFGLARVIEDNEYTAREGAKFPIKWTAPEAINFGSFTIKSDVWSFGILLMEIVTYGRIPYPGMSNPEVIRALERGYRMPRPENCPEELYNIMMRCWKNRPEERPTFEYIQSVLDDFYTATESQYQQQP
ATP-dependent RNA helicase DDX3X, sequence (O00571 whole entry): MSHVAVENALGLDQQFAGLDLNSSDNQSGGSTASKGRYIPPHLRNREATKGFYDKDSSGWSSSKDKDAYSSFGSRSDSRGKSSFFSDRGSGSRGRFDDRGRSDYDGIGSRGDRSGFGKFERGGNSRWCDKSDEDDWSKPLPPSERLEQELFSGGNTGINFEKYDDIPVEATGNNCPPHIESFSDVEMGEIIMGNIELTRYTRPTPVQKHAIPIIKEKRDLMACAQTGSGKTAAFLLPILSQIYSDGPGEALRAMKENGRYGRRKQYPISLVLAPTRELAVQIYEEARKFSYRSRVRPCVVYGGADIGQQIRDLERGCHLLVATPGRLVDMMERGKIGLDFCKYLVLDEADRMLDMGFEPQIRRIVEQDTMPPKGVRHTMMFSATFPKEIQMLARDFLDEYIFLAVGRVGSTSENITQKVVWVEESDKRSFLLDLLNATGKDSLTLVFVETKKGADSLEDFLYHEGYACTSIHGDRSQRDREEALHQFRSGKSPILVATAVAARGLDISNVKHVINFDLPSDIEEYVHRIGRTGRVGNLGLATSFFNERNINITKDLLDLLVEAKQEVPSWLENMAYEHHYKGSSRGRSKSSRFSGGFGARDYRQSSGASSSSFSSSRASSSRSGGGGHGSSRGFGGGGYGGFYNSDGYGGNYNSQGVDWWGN
Tyrosine-protein kinase Fer, sequence (P16591 whole entry): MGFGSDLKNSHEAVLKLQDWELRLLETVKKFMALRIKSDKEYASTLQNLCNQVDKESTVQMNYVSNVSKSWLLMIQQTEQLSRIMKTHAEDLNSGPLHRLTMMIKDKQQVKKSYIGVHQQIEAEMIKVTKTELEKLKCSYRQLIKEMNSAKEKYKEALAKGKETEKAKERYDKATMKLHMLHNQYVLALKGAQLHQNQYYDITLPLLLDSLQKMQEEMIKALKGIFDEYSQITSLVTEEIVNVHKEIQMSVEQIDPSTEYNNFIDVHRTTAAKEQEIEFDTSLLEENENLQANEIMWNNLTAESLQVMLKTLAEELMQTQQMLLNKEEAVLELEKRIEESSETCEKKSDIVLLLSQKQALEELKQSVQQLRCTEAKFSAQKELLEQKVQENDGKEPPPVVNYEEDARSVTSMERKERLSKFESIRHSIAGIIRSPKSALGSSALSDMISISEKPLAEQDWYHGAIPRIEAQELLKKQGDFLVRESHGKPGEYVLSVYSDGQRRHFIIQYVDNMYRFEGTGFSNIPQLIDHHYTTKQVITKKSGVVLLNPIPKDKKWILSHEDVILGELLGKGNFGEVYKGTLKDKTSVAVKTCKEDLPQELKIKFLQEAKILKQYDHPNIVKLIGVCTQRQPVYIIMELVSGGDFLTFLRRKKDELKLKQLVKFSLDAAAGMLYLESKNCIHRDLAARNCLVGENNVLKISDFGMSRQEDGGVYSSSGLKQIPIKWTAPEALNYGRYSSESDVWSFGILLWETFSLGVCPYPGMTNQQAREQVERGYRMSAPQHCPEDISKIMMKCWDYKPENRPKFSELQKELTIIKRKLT
Serine/threonine-protein kinase pim-1, sequence (P11309 whole entry): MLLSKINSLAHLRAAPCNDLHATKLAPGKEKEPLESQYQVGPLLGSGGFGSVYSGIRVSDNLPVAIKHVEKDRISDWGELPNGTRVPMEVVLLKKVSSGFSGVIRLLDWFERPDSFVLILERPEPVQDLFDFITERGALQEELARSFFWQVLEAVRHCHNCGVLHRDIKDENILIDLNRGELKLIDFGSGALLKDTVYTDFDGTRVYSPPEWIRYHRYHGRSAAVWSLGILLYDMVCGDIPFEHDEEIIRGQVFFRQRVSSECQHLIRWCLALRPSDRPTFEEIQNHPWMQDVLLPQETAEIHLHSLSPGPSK
Receptor-interacting serine/threonine-protein kinase 3, sequence (Q9Y572 whole entry): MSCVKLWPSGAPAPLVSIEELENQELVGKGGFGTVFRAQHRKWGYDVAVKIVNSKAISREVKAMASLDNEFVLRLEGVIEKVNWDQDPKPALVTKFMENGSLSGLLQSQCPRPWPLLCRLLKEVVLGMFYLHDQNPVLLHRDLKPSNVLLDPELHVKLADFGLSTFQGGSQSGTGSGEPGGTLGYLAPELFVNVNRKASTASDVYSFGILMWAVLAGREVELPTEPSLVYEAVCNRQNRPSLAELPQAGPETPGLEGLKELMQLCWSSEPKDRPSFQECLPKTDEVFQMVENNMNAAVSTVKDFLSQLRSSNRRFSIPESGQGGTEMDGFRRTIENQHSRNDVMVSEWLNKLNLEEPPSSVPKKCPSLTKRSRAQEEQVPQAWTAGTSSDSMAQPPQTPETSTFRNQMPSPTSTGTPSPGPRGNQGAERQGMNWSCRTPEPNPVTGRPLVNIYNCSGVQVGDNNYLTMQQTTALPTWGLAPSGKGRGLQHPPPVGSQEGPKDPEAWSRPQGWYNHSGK
Maternal embryonic leucine zipper kinase, sequence (Q14680 whole entry): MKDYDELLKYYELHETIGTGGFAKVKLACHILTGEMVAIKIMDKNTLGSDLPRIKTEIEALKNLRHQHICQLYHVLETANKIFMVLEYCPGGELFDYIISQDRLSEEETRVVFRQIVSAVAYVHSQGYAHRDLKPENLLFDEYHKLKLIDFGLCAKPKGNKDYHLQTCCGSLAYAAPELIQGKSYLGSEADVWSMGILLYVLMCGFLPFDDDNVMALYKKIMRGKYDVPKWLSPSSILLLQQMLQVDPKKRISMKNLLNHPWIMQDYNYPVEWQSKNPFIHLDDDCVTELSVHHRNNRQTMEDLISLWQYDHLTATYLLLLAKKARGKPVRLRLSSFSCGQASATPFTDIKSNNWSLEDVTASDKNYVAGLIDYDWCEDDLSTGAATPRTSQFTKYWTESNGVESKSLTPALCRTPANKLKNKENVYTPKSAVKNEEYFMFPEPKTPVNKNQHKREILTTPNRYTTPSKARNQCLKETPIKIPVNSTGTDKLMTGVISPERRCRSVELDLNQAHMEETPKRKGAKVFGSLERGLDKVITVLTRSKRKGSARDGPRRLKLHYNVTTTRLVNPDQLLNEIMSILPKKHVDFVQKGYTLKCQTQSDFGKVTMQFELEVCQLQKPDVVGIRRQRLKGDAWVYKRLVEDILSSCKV

The term Kd denotes the constant that tells how readily two partners part at equilibrium. `COc1cc2ncnc(Nc3ccc(F)c(Cl)c3)c2cc1NC(=O)/C=C/CN1CCCCC1` [DACOMITINIB ANHYDROUS]: the Kd in assay [1], in assay [2], in [3], in [4], in assay [5] and in assay [6] was > 30 µM (inactive) in each case. The Kd in assay [7] was > 30 µM (inactive); in assay [8], > 30 µM (inactive); in assay [9], > 30 µM (inactive); in assay [10], 3.64 µM (active); in assay [11], > 30 µM (inactive).

Turning to `COCCN1CCN(Cc2ccc(-c3n[nH]c4c3C(=O)c3c(NC(=O)NN5CCOCC5)cccc3-4)cc2)CC1` [RGB-286638], the Kd was > 30 µM (inactive) in assay [1]; > 30 µM (inactive) in assay [2]; > 30 µM (inactive) in [3]; 2.18 µM in [4]; 1.46 µM (active) in assay [5]; > 30 µM (inactive) in assay [6]. Further, the Kd in [7], in assay [8], in assay [9], in assay [10] and in assay [11] was > 30 µM (inactive) in each case.

With `O=C(NOC[C@H](O)CO)c1ccc(F)c(F)c1Nc1ccc(I)cc1F` [MIRDAMETINIB], the Kd in [1], in [2], in assay [3], in [4], in assay [5] and in assay [6] was > 30 µM (inactive) in each case. In addition, the Kd in [7], in assay [8], in assay [9], in assay [10] and in assay [11] was > 30 µM (inactive) each time.

Consider `CNC(=O)c1cccc(-c2ccc3c(N4CCOC[C@@H]4C)nc(N4CCOC[C@@H]4C)nc3n2)c1` [VISTUSERTIB], for which the Kd in assay [1] is > 30 µM (inactive); in [2], > 30 µM (inactive); in [3], > 30 µM (inactive); in assay [4] it was > 30 µM (inactive); in assay [5], > 30 µM (inactive); in assay [6], 0.983 µM (active). The Kd in assay [7], in assay [8], in [9], in [10] and in assay [11] was > 30 µM (inactive) in each case.

For `COc1cc2nccc(Oc3ccc(NC(=O)C4(C(=O)Nc5ccc(F)cc5)CC4)cc3)c2cc1OC` [CABOZANTINIB], the Kd in assay [1] was > 30 µM (inactive); in assay [2], > 30 µM (inactive); in [3] it was 0.56 µM (active); in assay [4] it was 2.9 µM (active); in [5] it was > 30 µM (inactive); in [6] it was > 30 µM (inactive). Besides, the Kd in [7] was > 30 µM (inactive); in assay [8] it was > 30 µM (inactive); in [9], > 30 µM (inactive); in [10], 2.46 µM (active); in assay [11] it was 1.1 µM (active).

Turning to `O=C(Nc1ccc(OC(F)(F)F)cc1)c1sccc1NCc1ccnc2ccccc12` [OSI-930], the Kd in assay [1], in [2], in [3], in assay [4], in [5] and in [7] was > 30 µM (inactive) throughout. Moreover, the Kd in assay [8] is > 30 µM (inactive); in [9], > 30 µM (inactive); in [10], 1.7 µM (active); in assay [11] it was > 30 µM (inactive).

On to `CNC(=O)c1ccc(Nc2ncc(C(F)(F)F)c(NCc3nccnc3N(C)S(C)(=O)=O)n2)cc1` [DEFACTINIB], for which the Kd is > 30 µM (inactive) in assay [1]; 1.3 µM (active) in [2]; > 30 µM (inactive) in [3]; > 30 µM (inactive) in assay [4]; > 30 µM (inactive) in assay [6]; > 30 µM (inactive) in assay [7]. Moreover, the Kd in assay [8], in assay [9], in assay [10] and in [11] was > 30 µM (inactive) each time.

In the case of `FC(F)(F)c1ccc(CNc2ccc(Cc3c[nH]c4ncc(Cl)cc34)cn2)cn1` [PEXIDARTINIB], the Kd in assay [1], in assay [2], in [3], in assay [4], in assay [5] and in [7] was > 30 µM (inactive) each time. Besides, the Kd in assay [8], in assay [9], in assay [10] and in assay [11] was > 30 µM (inactive) throughout.

Regarding `COc1ccc2c(OCc3nnc4ccc(-c5ccccc5)nn34)ccnc2c1` [AMG-208], the Kd in assay [1], in [2], in [3], in assay [4], in [5] and in assay [7] was > 30 µM (inactive) each time. Moreover, the Kd in [8], in [9], in assay [10] and in assay [11] was > 30 µM (inactive) in each case.

Turning to `COc1cc(Nc2ncc(F)c(Nc3ccc4c(n3)N(COP(=O)(O)O)C(=O)C(C)(C)O4)n2)cc(OC)c1OC` [FOSTAMATINIB], the Kd in [1], in assay [2], in assay [3], in assay [5], in assay [6] and in [7] was > 30 µM (inactive) throughout. The Kd in assay [8], in assay [9], in assay [10] and in assay [11] was > 30 µM (inactive) in each case.

In the case of `CCc1nc(C(N)=O)c(Nc2ccc(N3CCC(N4CCN(C)CC4)CC3)c(OC)c2)nc1NC1CCOCC1` [GILTERITINIB], the Kd in [1], in assay [3], in assay [4], in assay [5], in [6] and in assay [7] was > 30 µM (inactive) throughout. Further, the Kd in [8] was 1.38 µM (active); in assay [9] it was > 30 µM (inactive); in [10] it was 1.3 µM (active); in [11] it was 1.59 µM (active).

Source of the values: ChEMBL document CHEMBL3991601, “The target landscape of clinical kinase drugs” (Science, 2017).
